Tests used:
[1] = test system: CHOP, BiP, and DR5 mRNA in HCT116 cells; experiment: qPCR of UPR target transcripts (CHOP, BiP, DR5); assay type: cell-based, Homo sapiens; conditions: for 2^-(deltaCq) CHOP / 2^-(deltaCq) DR5 total / Cq CHOP / Cq DR5 total / Cq(sample) - avg Cq(GAPDH), CHOP / Cq(sample) - avg Cq(GAPDH), DR5 total: 24 hr, Rep 2
Description: Cells were grown in 6-well plates and harvested with 0.5 ml of TRIzol reagent (Life Technologies) per manufacturer’s protocol to extract RNA. For cDNA synthesis, 500 ng of total RNA was reverse transcribed with 2 μl of the SuperScript VILO master mix (Life Technologies # 11755050) in a total reaction volume of 10 μl following the manufacturer’s protocol for reaction temperature and duration. The reverse transcription product was diluted to 200 μl with 10 mM Tris-HCl pH 8.2 and used at 1:100 dilution for subsequent RT-PCR reactions.
PCR samples were prepared as described by manufacturer’s protocols from iQ SYBR Green Supermix (BioRad #17088800).
For each experiment, qRT-PCR reactions were set up in triplicate and run using a CFX96 Real Time System (Bio-Rad). Quantitation cycles were determined with CFX Manager 3.0 software (Bio-Rad) and then normalized to GAPDH as an internal control.

DR5 = experiment: GFP immunoprecipitation: DR5 (FADD, caspase 8) recovered with GFP-tagged protein, Western blot; assay type: cell-based, Homo sapiens; conditions: for fraction of DR5 IP'ed: GFP IP
Description: 15 cm dishes were seeded with 4 million HCT116 cells and allowed to recover for 18 hr prior to transfection. Samples were then transfected for 24 hr with the GFP-tagged ER trafficked protein, cytosolic GFP, or empty vector. To harvest apoptotic and living cells for each sample, all media and washes were collected. Cells were scraped in 2 ml of cold PBS and combined with the media and washes. Samples were centrifuged to pellet cells, washed with 1 ml cold PBS, and flash frozen in liquid N2 prior to lysis.
The cell pellets were resuspended in 750 μl of 30 mM HEPES pH 7.2, 150 mM NaCl, 1% Triton X-100 with 1x Roche protease inhibitor cocktail (if used subsequently for caspase glo 8 assay) or with 5x Roche protease inhibitor cocktail (if used for immunoblotting). The cells were lysed by mechanical shearing through a 25G needle for 13–15 plunges followed by incubation on ice for 30 min. The lysate was centrifuged at 2000xg for 5 min to remove debris and then incubated with 30 μl of GFP-Trap magnetic agarose beads (Chromotek gtma-20) for 4 hr at 4°C. The beads were then washed with 750 μl of lysis buffer for 10 min at 4°C for three rounds.
For Western blots, samples were eluted by adding 35 μl of non-reducing SDS gel loading buffer (50 mM Tris-HCl (pH 6.8), 2% SDS, 0.1% bromophenol blue, 10% glycerol) and incubated for 10 min at 70°C. The beads were then magnetically removed from the eluted sample before adding DTT to a final concentration of 25 mM. The entire sample was loaded onto the gel and immunoblotted for DR5, caspase 8, and GFP, in that order.

[2] = Compiled Reps INS RHO, average of 6 reps

INS-GFP: GFP-tagged proinsulin expressed from plasmid
2^-(deltaCq) CHOP ([1]; replicate 1): 0.06987
2^-(deltaCq) DR5 total ([1]; replicate 1): 0.04358
Cq CHOP ([1]; replicate 1): 23.5439
Cq DR5 total ([1]; replicate 1): 24.225
Cq(sample) - avg Cq(GAPDH), CHOP ([1]; replicate 1): 3.839
Cq(sample) - avg Cq(GAPDH), DR5 total ([1]; replicate 1): 4.52
2^-(deltaCq) CHOP ([1]; replicate 2): 0.05193
2^-(deltaCq) DR5 total ([1]; replicate 2): 0.05009
Cq CHOP ([1]; replicate 2): 23.972
Cq DR5 total ([1]; replicate 2): 24.0239
Cq(sample) - avg Cq(GAPDH), CHOP ([1]; replicate 2): 4.267
Cq(sample) - avg Cq(GAPDH), DR5 total ([1]; replicate 2): 4.319
2^-(deltaCq) CHOP ([1]; replicate 3): 0.05475
2^-(deltaCq) DR5 total ([1]; replicate 3): 0.04058
Cq CHOP ([1]; replicate 3): 23.8955
Cq DR5 total ([1]; replicate 3): 24.3278
Cq(sample) - avg Cq(GAPDH), CHOP ([1]; replicate 3): 4.191
Cq(sample) - avg Cq(GAPDH), DR5 total ([1]; replicate 3): 4.623
BiP avg fold change relative to empty ([1]; Compiled Reps INS RHO, average of 3 reps): 1.818
CHOP avg fold change relative to empty [1, 2]: 4.114
DR5 avg fold change relative to empty [1, 2]: 1.533
GAPDH avg fold change relative to empty [1, 2]: 1.006
GFP construct avg fold change relative to empty [1, 2]: 92.5691
BiP fold change relative to empty ([1]; Compiled Reps INS RHO, rep 1): 1.621
CHOP fold change relative to empty ([1]; Compiled Reps INS RHO, rep 1): 3.15
DR5 fold change relative to empty ([1]; Compiled Reps INS RHO, rep 1): 1.705
GAPDH fold change relative to empty ([1]; Compiled Reps INS RHO, rep 1): 0.8468
GFP construct fold change relative to empty ([1]; Compiled Reps INS RHO, rep 1): 79.1961
BiP fold change relative to empty ([1]; Compiled Reps INS RHO, rep 2): 1.965
CHOP fold change relative to empty ([1]; Compiled Reps INS RHO, rep 2): 3.503
DR5 fold change relative to empty ([1]; Compiled Reps INS RHO, rep 2): 1.533
GAPDH fold change relative to empty ([1]; Compiled Reps INS RHO, rep 2): 1.093
GFP construct fold change relative to empty ([1]; Compiled Reps INS RHO, rep 2): 73.666
BiP fold change relative to empty ([1]; Compiled Reps INS RHO, rep 3): 1.867
CHOP fold change relative to empty ([1]; Compiled Reps INS RHO, rep 3): 2.685
DR5 fold change relative to empty ([1]; Compiled Reps INS RHO, rep 3): 1.358
GAPDH fold change relative to empty ([1]; Compiled Reps INS RHO, rep 3): 1.081
GFP construct fold change relative to empty ([1]; Compiled Reps INS RHO, rep 3): 131.33
CHOP fold change relative to empty ([1]; Compiled Reps INS RHO, rep 4): 6.073
DR5 fold change relative to empty ([1]; Compiled Reps INS RHO, rep 4): 1.494
GAPDH fold change relative to empty ([1]; Compiled Reps INS RHO, rep 4): 0.8281
GFP construct fold change relative to empty ([1]; Compiled Reps INS RHO, rep 4): 82.5431
CHOP fold change relative to empty ([1]; Compiled Reps INS RHO, rep 5): 4.514
DR5 fold change relative to empty ([1]; Compiled Reps INS RHO, rep 5): 1.718
GAPDH fold change relative to empty ([1]; Compiled Reps INS RHO, rep 5): 1.042
GFP construct fold change relative to empty ([1]; Compiled Reps INS RHO, rep 5): 92.9155
CHOP fold change relative to empty ([1]; Compiled Reps INS RHO, rep 6): 4.759
DR5 fold change relative to empty ([1]; Compiled Reps INS RHO, rep 6): 1.392
GAPDH fold change relative to empty ([1]; Compiled Reps INS RHO, rep 6): 1.149
GFP construct fold change relative to empty ([1]; Compiled Reps INS RHO, rep 6): 95.7639
UPR target gene transcription ([1]; HCT116, transfected 24 hr): upregulated BiP and CHOP mRNAs
fraction of DR5 IP'ed (DR5; sheet 2018-04-13 rep 2): 0.03271
fraction of DR5 IP'ed (DR5; sheet 2018-09-20 rep 1): 0.01265
fraction IP'ed (DR5; Rep 1 (second series)): 0.03271
fraction IP'ed (DR5; Rep 2 (second series)): 0.01265
% IP'ed (DR5; average of all replicates): 2.268%
fraction IP'ed, average (DR5; average of all replicates): 0.02268
Mean ± SEM (fraction IP'ed) (DR5; unpaired t test sheet, GFP n=5, MPZ n=3, INS n=2, RHO n=2): 0.02268 ± 0.01003, n=2
95% confidence interval (difference between means) (DR5; vs. GFP, fraction IP'ed): -0.02195 to 0.04688
Difference between means (DR5; vs. GFP, fraction IP'ed, ± SEM): 0.01247 ± 0.01339

— PMC7041945, “Misfolded proteins bind and activate death receptor 5 to trigger apoptosis during unresolved endoplasmic reticulum stress” (eLife, 2020)
